Results as given in patent US20100061928A1, “LABELLED ANALOGUES OF HALOBENZAMIDES AS RADIOPHARMACEUTICALS” (Institut National De La Sante et De La Recherche Medicale …, priority 2006, published 2010).
Where a name gives a salt, the structure may show the parent alone.

Experiments:
[1] = system: tumour; experiment: Dosimetry with regard to the tumour (MIRD programme, extrapolated to ^131I)
[2] = system: grafted B16 F0 murine melanoma tumour; experiment: Biodistribution of the ^125I-labelled molecules in the melanoma-bearing mouse (autoradiography of whole-body sections); conditions: for Biodistribution, Mean, B 16: B 16 tumour
[3] = Elimination of the molecules: cumulative urinary and faecal excretion 0-72 hours; assay type: in vivo, mouse; conditions: cumulative excretion 0-72 hours

SMILES: CCCN(CCC)CCCCNC(=O)c1ccc2cc(I)ccc2n1 [compound 49, N-(4-dipropylaminobutyl)-6-iodoquinoline-2-carboxamide dihydrochloride]
- Effective period ([1]; extrapolated to 131I labelling): 51.2 h
- Biological period ([1]; from biodistribution data): 69.7 hours
- Biodistribution, Mean, B 16 ([2]; 1 H): 19.07
- Biodistribution, Mean, B 16 ([2]; 3 H): 20.34
- Biodistribution, Mean, B 16 ([2]; 6 H): 27.38
- Biodistribution, Mean, B 16 ([2]; 24 H): 18.28
- Biodistribution, Mean, B 16 ([2]; 72 H): 10.86
- Biodistribution, Mean, GB ([2]; 3 H): 50.82
- Biodistribution, Mean, GB ([2]; 6 H): 55.80
- Biodistribution, Mean, Ic ([2]; 1 H): 24.45
- Biodistribution, Mean, Ic ([2]; 3 H): 23.54
- Biodistribution, Mean, Ic ([2]; 6 H): 26.72
- Biodistribution, Mean, Ic ([2]; 24 H): 1.21
- Biodistribution, Mean, Sc ([2]; 1 H): 25.53
- Biodistribution, Mean, Sc ([2]; 3 H): 24.89
- Biodistribution, Mean, Sc ([2]; 6 H): 22.21
- Biodistribution, Mean, Sc ([2]; 24 H): 2.16
- tumour concentration, times higher than with BZA ([2]; at 72 hours (FIG. 1B)): 14 times
- Biodistribution, Mean, blood ([2]; 1 H): 3.31
- Biodistribution, Mean, blood ([2]; 3 H): 3.47
- Biodistribution, Mean, blood ([2]; 6 H): 2.50
- tumour concentration, % of the injected dose per gram of tumour ([2]; from the first hour): 19.1 % ID/g
- Biodistribution, Mean, kidney ([2]; 1 H): 18.29
- Biodistribution, Mean, kidney ([2]; 3 H): 13.10
- Biodistribution, Mean, kidney ([2]; 6 H): 7.98
- Biodistribution, Mean, liver ([2]; 1 H): 13.79
- Biodistribution, Mean, liver ([2]; 3 H): 7.77
- Biodistribution, Mean, liver ([2]; 6 H): 3.89
- Biodistribution, Mean, lungs ([2]; 1 H): 8.33
- Biodistribution, Mean, lungs ([2]; 3 H): 6.88
- Biodistribution, Mean, lungs ([2]; 6 H): 3.34
- Biodistribution, Mean, muscle ([2]; 1 H): 2.00
- Biodistribution, Mean, muscle ([2]; 3 H): 1.41
- Biodistribution, Mean, muscle ([2]; 6 H): 0.45
- Biodistribution, Mean, pancreas ([2]; 1 H): 21.47
- Biodistribution, Mean, pancreas ([2]; 3 H): 9.71
- Biodistribution, Mean, spleen ([2]; 1 H): 18.88
- Biodistribution, Mean, spleen ([2]; 3 H): 16.71
- Biodistribution, Mean, thyroid ([2]; 1 H): 28.75
- Biodistribution, Mean, thyroid ([2]; 3 H): 125.51
- Biodistribution, Mean, thyroid ([2]; 6 H): 16.38
- Biodistribution, Mean, thyroid ([2]; 72 H): 53.26
- Biodistribution, Mean, uvea ([2]; 1 H): 21.04
- Biodistribution, Mean, uvea ([2]; 3 H): 31.76
- Biodistribution, Mean, uvea ([2]; 6 H): 28.78
- Biodistribution, Mean, uvea ([2]; 24 H): 19.22
- Biodistribution, Mean, uvea ([2]; 72 H): 19.78
- Faecal elimination 0-72 hours (Faeces) ([3]; faeces, mice in metabolic cages): 19.9%
- Urinary and faecal elimination 0-72 hours (Total) ([3]; urine + faeces): 87.1%
- Urinary elimination 0-72 hours (Urine) ([3]; urine, mice in metabolic cages): 67.2%
